Experimental data: patent publication US6506751B1, “Thiazolidinone compounds useful as chemokine inhibitors” (Millennium Pharmaceuticals, Inc., priority 1999, dated 2003)

How the values were obtained:
CCR-5 receptor = target: T1, CCR-5 receptor (Homo sapiens, UniProt P51681); assay: 125I-gp120/sCD4/CCR-5 binding assay (CCR-5 receptor binding assay); conditions: for IC50: block of 125I-gp120 (HIV-1 JR-FL)/sCD4 binding to membranes from CCR-5/L 1.2 cells; for inhibition at 10 µM / % Inhib. @ 10 μM: 10 μM compound, 125I-gp120/sCD4 binding to membranes from CCR-5/L 1.2 cells; for inhibition at 10 µM: read-out: % Inhib. @ 10 μM
T1 construct: membranes prepared from CCR-5/L 1.2 cells; expressed in transfected cells; host or cells: L1.2 cells (CCR-5/L 1.2), membrane preparation
Protocol: The ^125I-gp120/sCD4/CCR-5 binding assay is carried out similarly as described in Wu et al., Nature, 1996;384:179-183. Briefly, the envelope gp120 protein derived from HIV-1 JR-FL (Trkola et al., Nature, 1996;384:184-186), a M-tropic strain, is iodinated using solid phase lactoperoxidase to a specific activity of 20 μCi/μg. For each binding reaction (in a final volume of 100 μL binding buffer [50 mM HEPES, pH 7.5, 1 mM CaCl2, 5 mM MgCl2, and 0.5% BSA]), 25 μL (2.5 μg) of membranes prepared from CCR-5/L 1.2 cells are mixed with 25 μL (3 nM) sCD4, followed by 25 μL (0.1 nM) radiolabeled gp120 in the presence or absence of 25 μL compound dissolved in DMSO (final concentration of DMSO 0.5%). The reactions are incubated at room temperature for 45 to 60 minutes and stopped by transferring the mixture to GFB filter plates, which are then washed 3 to 4 times with binding buffer containing 0.5 M NaCl. The plates are dried and MicroScint scintillation fluid is added before counting.

T1 sequence (P51681 whole entry): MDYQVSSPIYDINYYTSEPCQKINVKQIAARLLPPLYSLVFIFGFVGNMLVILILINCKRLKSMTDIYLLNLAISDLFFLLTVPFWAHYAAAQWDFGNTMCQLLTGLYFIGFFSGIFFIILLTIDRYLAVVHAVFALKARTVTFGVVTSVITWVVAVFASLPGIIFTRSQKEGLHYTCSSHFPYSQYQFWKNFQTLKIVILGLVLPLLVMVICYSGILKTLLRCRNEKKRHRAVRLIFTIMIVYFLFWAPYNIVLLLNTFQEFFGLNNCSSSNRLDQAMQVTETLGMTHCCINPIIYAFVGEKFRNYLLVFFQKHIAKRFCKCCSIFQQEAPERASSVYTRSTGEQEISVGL

SMILES | IC50 (CCR-5 receptor) | melting point | inhibition at 10 µM (CCR-5 receptor) | % Inhib. @ 10 μM (CCR-5 receptor)
O=C1/C(=C\c2cccc(F)c2)SC(c2cccc(F)c2)N1CCCN1CCOCC1 (centres unmarked) [Compound 1, 5-(3-Fluorobenzylidene)-2-(3-fluorophenyl)-3-(3-morpholin-4-ylpropyl)-thiazolidin-4-one] | 10.8 µM | 149 to 150 °C |  | 
O=C1/C(=C\c2cccc(F)c2)SC(c2cccc(F)c2)N1CCCN1CCC(N2CCCCC2)CC1 (centres unmarked) [Compound 6, 3-(3-[1,4′]Bipiperidinyl-1′-yl-propyl)-5-(3-fluorobenzylidene)-2-(3-fluorophenyl)-thiazolidin-4-one] | 1.26 µM | 160 to 162 °C |  | 
O=C1/C(=C\C2CCCCC2)SC(c2cccc(Cl)c2)N1CCCN1CCCCC1 (centres unmarked) [Compound 14, 2-(3-Chlorophenyl)-5-cyclohexylmethylene-3-(3-piperidin-1-yl-propyl)-thiazolidin-4-one] | 0.46 µM | 90 to 91 °C |  | 
CCN(CC)CCSCCCN1C(=O)/C(=C\c2cccc(F)c2)SC1c1cccc(Cl)c1 (centres unmarked) [Compound 15, 2-(3-Chlorophenyl)-3-[3-(2-diethylaminoethylsulfanyl)propyl]-5-(3-fluorobenzylidene)-thiazolidin-4-one] | 12.7 µM | 41 to 43 °C |  | 
O=C1CSC(c2cccc(Cl)c2)N1C1CCN(Cc2ccccc2)CC1 (centres unmarked) [Compound 16, 3-(1-Benzylpiperidin-4-yl)-2-(3-chlorophenyl)-thiazolidin-4-one] | 3.81 µM | 140 to 141 °C |  | 
O=C1/C(=C\c2cccc(F)c2)SC(c2cccc(Cl)c2)N1C1CCN(Cc2ccccc2)CC1 (centres unmarked) [Compound 19, 3-(1-Benzylpiperidin-4-yl)-2-(3-chlorophenyl)-5-(3-fluorobenzylidene)-thiazolidin-4-one] | 0.28 µM | 121 to 123 °C |  | 
O=C1/C(=C\c2ccco2)SC(c2cccc(Cl)c2)N1CCCN1CCCCC1 (centres unmarked) [Compound 20, 2-(3-Chlorophenyl)-5-(furan-2-ylmethylene)-3-(3-piperidin-1-yl-propyl)-thiazolidin-4-one] | 0.17 µM | 156 to 158 °C |  | 
O=C1/C(=C\c2cccc(F)c2)SC(c2cccc(Cl)c2)N1CCCN1CCOCC1 (centres unmarked) [Compound 23, 2-(3-Chlorophenyl)-5-(3-fluorobenzylidene)-3-(3-morpholin-4-yl-propyl)-thiazolidin-4-one] | 1.99 µM | 142 to 143 °C |  | 
O=C1C(=Cc2cccc(Cl)c2)SC(c2cccc(C(F)(F)F)c2)N1CCCN1CCN(C2CCCCC2)CC1 (centres unmarked) [Compound 46, 5-(3-Chloro-benzylidene)-3-[3-(4-cyclohexyl-piperazin-1-yl)-propyl]-2-(3-rifluoromethyl-phenyl)-thiazolidin-4-one] |  |  |  | 51.1%
O=C1C(=Cc2cccc(Cl)c2)SC(c2cccc(F)c2)N1CCCN1CCN(c2ccccn2)CC1 (centres unmarked) [Compound 47, 5-(3-Chloro-benzylidene)-2-(3-fluoro-phenyl)-3-[3-(4-pyridin-2-yl-piperazin-1-yl)-propyl]-thiazolidin-4-ne] |  |  |  | 75.6%
O=C1C(=Cc2cccc(Cl)c2)SC(c2cccc(F)c2)N1CCCN1CCN(C2CCCCC2)CC1 (centres unmarked) [Compound 49, 5-(3-Chloro-henzylidene)-3-[3-(4-cyclohexyl-piperazin-1-yl)-propyl]-2-(3-fluoro-phenyl)-thiazolidin-4-one] |  |  |  | 54.0%
O=C1C(=Cc2cccc(Cl)c2)SC(c2cccc(Cl)c2)N1CCCN1CCN(C2CCCCC2)CC1 (centres unmarked) [Compound 52, 5-(3-Chloro-benzylidene)-2-(3-chloro-phenyl)-3-[3-(4-cyclohexyl-piperazin-1-yl)-propyl]-thiazolidin-4-one] |  |  | 43.7% | 

Next, values leading:

IC50 (CCR-5 receptor) | melting point | inhibition at 10 µM (CCR-5 receptor) | % Inhib. @ 10 μM (CCR-5 receptor) | SMILES
0.25 µM | 137 to 139 °C |  |  | O=C1/C(=C\c2cccc(Cl)c2)SC(c2cccc(Cl)c2)N1CCCN1CCCCC1 (centres unmarked) [Compound 2, 5-(3-Chlorobenzylidene)-2-(3-chlorophenyl)-3-(3-piperidin-1-yl-propyl)-thiazolidin-4-one]
 |  | 57.7% |  | O=C1C(=Cc2cccc(Cl)c2)SC(c2cccc(C(F)(F)F)c2)N1CCCN1CCN(c2ncccn2)CC1 (centres unmarked) [Compound 45, 5-(3-Chloro-benzylidene)-3-[3-(4-pyrimidin-2-yl-piperazin-1-yl)-propyl]-2-(3-trifluoromethyl-phenyl)-thiazolidin-4-one]
 |  | 84.7% |  | O=C1C(=Cc2cccc(Cl)c2)SC(c2cccc(F)c2)N1CCCN1CCN(c2ncccn2)CC1 (centres unmarked) [Compound 48, 5-(3-Chloro-benzylidene)-2-(3-fluoro-phenyl)-3-[3-(4-pyrimidin-2-yl-piperazin-1-yl)-propyl]-thiazolidin-4-one]
 |  | 77.8% |  | O=C1C(=Cc2cccc(Cl)c2)SC(c2cccc(Cl)c2)N1CCCN1CCN(c2ccccn2)CC1 (centres unmarked) [Compound 50, 5-(3-Chloro-benzylidene)-2-(3-chloro-phenyl)-3-[3-(4-pyridin-2-yl-piperazin-1-yl)-propyl]-thiazolidin-4-one]
 |  | 84% |  | O=C1C(=Cc2cccc(Cl)c2)SC(c2cccc(Cl)c2)N1CCCN1CCN(c2ncccn2)CC1 (centres unmarked) [Compound 51, 5-(3-Chloro-benzylidene)-2-(3-chloro-phenyl)-3-[3-(4-pyrimidin-2-yl-piperazin-1-yl)-propyl]-thiazolidin-4-one]
